Values quoted from earlier work as cited in publication PMC8155967, “Investigating the Potential of Transdermal Delivery of Avanafil Using Vitamin E-TPGS Based Mixed Micelles Loaded Films” (Pharmaceutics, 2021).
Values after ≈ are worked out from the molar mass of the structure shown.

- partition coefficient: 2.78
- solubility in water: 30 µg/mL (≈ 62 µM)
SMILES: COc1ccc(CN=c2[nH]c(N3CCC[C@H]3CO)ncc2C(=O)NCc2ncccn2)cc1Cl [AVA, Avanafil]
